Results from patent publication US20240148821A1, “PHARMACEUTICAL USE OF CYCLIC PEPTIDE COMPOUND” (CHUGAI SEIYAKU KABUSHIKI KAISHA, priority 2021, published 2024).
Numbered stars: 1 amine (or outer) side, 2 acyl side, 3 side chain; on linkers, the order of the positions; unused ones are H or OH. Bridge positions count the residues as written; N and C are the ends. Square brackets hold non-standard residues; d marks the D form. Peptide text beside a SMILES is read from it. * marks the point of attachment. hPhe(3,5-F2-4-CF3) = N[C@@H](CCc1cc(F)c(C(F)(F)F)c(F)c1)C(=O)O; hPhe(3-Cl-4-CF3) = N[C@@H](CCc1ccc(C(F)(F)F)c(Cl)c1)C(=O)O; hPhe(3-F,4-CF3) = N[C@@H](CCc1ccc(C(F)(F)F)c(F)c1)C(=O)O; NMePhe(4-CF3) = CN[C@@H](Cc1ccc(C(F)(F)F)cc1)C(=O)O; NEtPhe(4-Me) = CCN[C@@H](Cc1ccc(C)cc1)C(=O)O; NMeAbu(4,4,4-F3) = CN[C@@H](CC(F)(F)F)C(=O)O; NMePhe(4-Cl) = CN[C@@H](Cc1ccc(Cl)cc1)C(=O)O; NMeNle(6-CHF2) = CN[C@@H](CCCCC(F)F)C(=O)O; NMedβ3hAla = C[C@H](CC(=O)[*:2])N(C)[*:1]; NMeGly(cPent) = CN[C@H](C(=O)O)C1CCCC1; NMeCha = CN[C@@H](CC1CCCCC1)C(=O)O; Hyp = O=C(O)[C@@H]1C[C@@H](O)CN1; NMeI = CC[C@H](C)[C@H](NC)C(=O)O; Gly(cPr) = N[C@H](C(=O)O)C1CC1; NMeD = CN[C@@H](CC(=O)O)C(=O)O; NMeL = CN[C@@H](CC(C)C)C(=O)O; Chg = N[C@H](C(=O)O)C1CCCCC1; NMeV = CN[C@H](C(=O)O)C(C)C; d(β3hA) = C[C@@H](N)CC(=O)O; Morpholide = C1CN(*)CCO1; NMeA = CN[C@@H](C)C(=O)O; NMeAib = CNC(C)(C)C(=O)O; Piperidide = C1CCN(*)CC1; Ac5c = NC1(C(=O)O)CCCC1; Aze = O=C(O)[C@@H]1CCN1; Aib = CC(C)(N)C(=O)O; NEtG = CCNCC(=O)O; Sar = CNCC(=O)O

Key:
[1] = molecular target: protein-protein interaction between Kras and SOS1 (biotin-tagged human Kras loaded with GDP, His-tagged human SOS1) (Homo sapiens (Human), UniProt P01116, G12D); assay: Protein-protein interaction inhibition between Kras and SOS1 (KrasG12D-SOS PPI) using AlphaScreen; assay type: biochemical; conditions: AlphaScreen; biotin-tagged human Kras loaded with GDP, His-tagged human SOS1; read-out: KRAS G12D-SOS PPI IC50;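 note: kras produced in E. coli, Ni-coupled donor beads and streptavidin acceptor beads, excitation 680 nm with emission detected at 520–620 nm via singlet oxygen transfer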
[2] = tested on: Human pancreatic cancer cell line AsPC-1 (G12D mutation Kras); assay: AsPC-1 cell growth inhibition (AsPC-1 CGI); assay type: cell-based; conditions: read-out: AsPC-1 cell growth inhibition, 50% growth inhibitory concentration (IC50 value); 96 hours, CellTiter-Glo, values classified in ranges
Protocol: Test compounds were serially dilated with dimethyl sulfoxide, and 200 nL was then dispensed to a U-bottom 96-well plate using Labcyte Echo. […] The cell suspension was dispensed to a. plate containing a test compound at 100 μL per well and incubated at 37° C. in a 5% carbon dioxide gas incubator. 96 hours later, 80 μL of CellTiter-Glo (Promega) was added to each well and fluorescence was measured.

Compound `CC(C)C[C@H]1C(=O)N[C@@H](C2CC2)C(=O)N(C)[C@@H](C)C(=O)N2CC[C@H]2C(=O)N(C)[C@@H](CC2CCCCC2)C(=O)N(C)CC(=O)N[C@@H](CCc2ccc(C(F)(F)F)c(Cl)c2)C(=O)N2CCC[C@H]2C(=O)NC2(CCCC2)C(=O)N(C)[C@@H](C(C)C)C(=O)N(C)[C@H](C(=O)N2CCCCC2)CC(=O)N1C` [Compound 280] ([NMeL][Gly(cPr)][NMeA][Aze][NMeCha][Sar][hPhe(3-Cl-4-CF3)]P[Ac5c][NMeV][NMeD]-Piperidide; lactam N-11) has an IC50 [1] of 24 nM and an IC50 [2] of over 500 nM.
For `CC[C@H](C)[C@@H]1NC(=O)[C@H](CC(C)C)N(C)C(=O)C[C@@H](C(=O)N(C)C)N(C)C(=O)[C@H](C2CCCC2)N(C)C(=O)C2(CCCC2)NC(=O)[C@@H]2CCCN2C(=O)[C@H](CCc2ccc(C(F)(F)F)c(F)c2)NC(=O)CN(CC)C(=O)[C@H](CC2CCCCC2)N(C)C(=O)[C@@H]2CCN2C(=O)[C@H](C)N(C)C1=O` [Compound 1205] ([NMeL]I[NMeA][Aze][NMeCha][NEtG][hPhe(3-F,4-CF3)]P[Ac5c][NMeGly(cPent)][NMeD]-NMe2; lactam N-11), the IC50 [1] was 2.8 nM and the IC50 [2] was at most 20 nM.
`CC[C@H](C)[C@@H]1NC(=O)[C@H](CC(C)C)N(C)C(=O)C[C@@H](C(=O)N2CCCCC2)N(C)C(=O)[C@H](C(C)C)N(C)C(=O)C2(CCCC2)NC(=O)[C@@H]2CCCN2C(=O)[C@H](CCc2ccc(C(F)(F)F)c(Cl)c2)NC(=O)CN(C)C(=O)[C@H](CC(F)(F)F)N(C)C(=O)[C@@H]2CCN2C(=O)[C@H](C)N(C)C1=O` [Compound 1665] ([NMeL]I[NMeA][Aze][NMeAbu(4,4,4-F3)][Sar][hPhe(3-Cl-4-CF3)]P[Ac5c][NMeV][NMeD]-Piperidide; lactam N-11) gave an IC50 [1] of 19 nM and an IC50 [2] of over 500 nM.
`CC[C@H](C)[C@@H]1NC(=O)[C@H](C)N(C)C(=O)C[C@@H](C(=O)N2CCCCC2)N(C)C(=O)[C@H](C(C)C)N(C)C(=O)C2(CCCC2)NC(=O)[C@@H]2CCCN2C(=O)[C@H](CCc2ccc(C(F)(F)F)c(Cl)c2)NC(=O)CN(C)C(=O)[C@H](CC2CCCCC2)N(C)C(=O)[C@@H]2CCN2C(=O)[C@H](C)N(C)C1=O` [Compound 1562] ([NMeA]I[NMeA][Aze][NMeCha][Sar][hPhe(3-Cl-4-CF3)]P[Ac5c][NMeV][NMeD]-Piperidide; lactam N-11) showed an IC50 [1] of 4.8 nM and an IC50 [2] of over 500 nM.
`CC[C@H](C)[C@@H]1NC(=O)[C@H](CC(C)C)N(C)C(=O)C[C@@H](C(=O)N2CCOCC2)N(C)C(=O)[C@H]([C@@H](C)CC)N(C)C(=O)C2(CCCC2)NC(=O)[C@@H]2CCCN2C(=O)[C@H](CCc2cc(F)c(C(F)(F)F)c(F)c2)NC(=O)CN(C)C(=O)[C@H](Cc2ccc(C(F)(F)F)cc2)N(C)C(=O)[C@@H]2CCN2C(=O)[C@H](C)N(C)C1=O` [Compound 1362] ([NMeL]I[NMeA][Aze][NMePhe(4-CF3)][Sar][hPhe(3,5-F2-4-CF3)]P[Ac5c][NMeI][NMeD]-Morpholide; lactam N-11) showed an IC50 [1] of 0.81 nM and an IC50 [2] of at most 20 nM.
In the case of `CC(C)C[C@H]1C(=O)N[C@@H](C2CCCCC2)C(=O)N(C)CC(=O)N(C)CC(=O)N(C)[C@@H](CCCCC(F)F)C(=O)N(C)CC(=O)N[C@@H](CCc2ccc(C(F)(F)F)c(F)c2)C(=O)N(C)[C@@H](CC(C)C)C(=O)NC(C)(C)C(=O)N(C)[C@@H](CC(C)C)C(=O)N[C@H](C)CC(=O)N1C` [Compound 1460] (cyclo([Aib][NMeL][d(β3hA)][NMeL][Chg][Sar][Sar][NMeNle(6-CHF2)][Sar][hPhe(3-F,4-CF3)][NMeL])), the IC50 [1] is reported as 130 nM and the IC50 [2] is reported as over 500 nM.
`CCO[C@@H]1C[C@H]2C(=O)NC3(CCCC3)C(=O)N(C)[C@@H](C3CCCC3)C(=O)N(C)[C@H](C)CC(=O)N(C)[C@@H](CC(C)C)C(=O)N[C@@H]([C@@H](C)CC)C(=O)N(C)[C@@H](C)C(=O)N3CC[C@H]3C(=O)N(CC)[C@@H](Cc3ccc(C)cc3)C(=O)N(C)CC(=O)N[C@@H](CCc3ccc(C(F)(F)F)c(Cl)c3)C(=O)N2C1` [Compound 775] (cyclo([Ac5c][NMeGly(cPent)][NMedβ3hAla][NMeL]I[NMeA][Aze][NEtPhe(4-Me)][Sar][hPhe(3-Cl-4-CF3)][Hyp](Et))) gave an IC50 [1] of 4.6 nM and an IC50 [2] of at most 20 nM.
`CC[C@H](C)[C@@H]1NC(=O)[C@H](CC(C)C)N(C)C(=O)C[C@@H](C)N(C)C(=O)[C@H](C(C)C)NC(=O)C(C)(C)N(C)C(=O)[C@H](CC(C)C)NC(=O)[C@H](CCc2ccc(C(F)(F)F)c(F)c2)NC(=O)CN(C)C(=O)[C@H](Cc2ccc(Cl)cc2)N(C)C(=O)CN(C)C(=O)CN(C)C1=O` [Compound 1084] (cyclo(I[Sar][Sar][NMePhe(4-Cl)][Sar][hPhe(3-F,4-CF3)]L[NMeAib]V[NMedβ3hAla][NMeL])) showed an IC50 [1] of 53 nM and an IC50 [2] of over 500 nM.
